This note sets out measurements from patent publication US6878804B1, “Synthesis of template-fixed β-hairpin loop mimetics” (University of Zurich, priority 1999, dated 2005).

Non-standard residues stand in square brackets, D forms with d. Residues, ends and D or L forms follow the SMILES beside them.

The chains are these.
B1: target cyclic peptide 8 (peptide)
peptide: cyclo(PYYVRKKYY[dP])
SMILES: CC(C)[C@@H]1NC(=O)[C@H](Cc2ccc(O)cc2)NC(=O)[C@H](Cc2ccc(O)cc2)NC(=O)[C@@H]2CCCN2C(=O)[C@H]2CCCN2C(=O)[C@H](Cc2ccc(O)cc2)NC(=O)[C@H](Cc2ccc(O)cc2)NC(=O)[C@H](CCCCN)NC(=O)[C@H](CCCCN)NC(=O)[C@H](CCCNC(=N)N)NC1=O
notes: also called ^LP-Y-Y-V-R / ^DP-Y-Y-K-K

The target of one assay is platelet-derived growth factor β-receptor (PDGFR-β) (Homo sapiens, UniProt P09619). The experiment in a line: Solid-phase assay: displacement of 125I-PDGF-BB from immobilized PDGFR-β. The class given is binding.
platelet-derived growth factor β-receptor (PDGFR-β) (Homo sapiens, UniProt P09619), sequence (P09619 33-1106, species assumed): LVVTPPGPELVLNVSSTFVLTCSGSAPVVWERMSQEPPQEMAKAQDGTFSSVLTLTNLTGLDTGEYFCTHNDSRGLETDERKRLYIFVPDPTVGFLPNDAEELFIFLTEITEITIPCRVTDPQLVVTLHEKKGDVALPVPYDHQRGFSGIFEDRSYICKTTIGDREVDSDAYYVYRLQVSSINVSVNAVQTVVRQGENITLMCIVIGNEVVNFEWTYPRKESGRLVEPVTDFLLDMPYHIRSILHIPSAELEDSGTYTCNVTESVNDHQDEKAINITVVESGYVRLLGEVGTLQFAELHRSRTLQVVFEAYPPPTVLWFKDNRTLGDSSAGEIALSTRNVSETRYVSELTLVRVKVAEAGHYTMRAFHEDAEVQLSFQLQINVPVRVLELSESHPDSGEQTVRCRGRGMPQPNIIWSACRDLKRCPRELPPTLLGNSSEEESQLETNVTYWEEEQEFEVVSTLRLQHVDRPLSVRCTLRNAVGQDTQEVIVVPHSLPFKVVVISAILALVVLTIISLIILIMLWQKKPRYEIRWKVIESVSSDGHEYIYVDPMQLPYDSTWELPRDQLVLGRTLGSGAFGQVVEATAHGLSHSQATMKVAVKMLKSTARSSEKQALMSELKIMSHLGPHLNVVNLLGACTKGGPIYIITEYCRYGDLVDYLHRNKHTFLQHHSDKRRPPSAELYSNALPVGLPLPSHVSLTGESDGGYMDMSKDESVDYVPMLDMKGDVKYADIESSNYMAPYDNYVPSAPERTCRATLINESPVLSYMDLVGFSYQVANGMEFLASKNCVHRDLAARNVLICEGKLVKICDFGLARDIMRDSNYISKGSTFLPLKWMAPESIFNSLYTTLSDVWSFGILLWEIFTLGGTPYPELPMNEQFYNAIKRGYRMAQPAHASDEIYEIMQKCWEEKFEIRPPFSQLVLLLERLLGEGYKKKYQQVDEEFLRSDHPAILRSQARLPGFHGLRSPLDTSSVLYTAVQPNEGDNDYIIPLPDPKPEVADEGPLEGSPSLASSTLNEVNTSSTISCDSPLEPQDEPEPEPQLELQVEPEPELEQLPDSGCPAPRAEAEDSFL
Conditions: not given
Here is the method:
Direct immobilization of platelet-derived growth factor […] is performed by overnight incubation in immunosorbent 96-well plates (Nunc) at 4° C. using 100 ng of purified protein in 100 μl of 15 mM Na2CO3, 35 mM NaHCO3, pH 9.6. The plates are washed once with tris-buffered saline (TBS, 20 mM Tris-HCl, 150 mM NaCl, pH 7.4), and nonspecific adsorption is blocked by at least 1 h of incubation with TBS plus 1% bovine serum albumin (BSA). Following washing with TBS plus 0.1% Tween, 3000 cpm of ^125I-PDGF-BB and increasing amounts of unlabeled PDGF-BB or the peptide derivative of formula I are added to duplicate wells and incubated for 3 h at room temperature in 0.1% Tween, 1 mM CaCl2, 1 mM MgCl2 and 1% BSA. The plates are washed three times with TBS plus 0.1% Tween, and bound ligand is removed with 0.1 M citric acid, pH 2.5, prior to counting in a γ-counter.
Direct immobilization of platelet-derived growth factor β-receptor (PDGFR-β) was performed by overnight incubation in immunosorbent 96-well plates (Nunc) at 4° C. using 100 ng of purified protein in 100 μl of 15 mM Na2CO3, 35 mM NaHCO3, pH 9.6. Plates were washed once with Tris-buffered saline (TBS, 20 mM Tris-HCL, 150 mM Na Cl, pH 7.4), and nonspecific adsorption was blocked by at least 1 h of incubation with TBS plus 1% bovine serum albumin (BSA). Following washing with TBS plus 0.1% Tween, 3000 cpm of ^125I-PDGF-BB and increasing amounts of unlabeled PDGF-BB or the peptides to be tested were added to duplicate wells and incubated for 3 h at room temperature in TBS plus 0.1% Tween, 1 mM CaCl2, 1 mM MgCl2, and 1% BSA. The plates were washed three times with TBS plus 0.1% Tween, and the bound ligand was removed with 0.1 M citric acid, pH 2.5, before counting in a γ-counter.
The cyclic peptides were analyzed and purified by preparative HPLC (dual-pump Pharmacia system with Waters RCM-μBondapak®-C18-cartridges, 10 μm 300 A 25×100 mm for prep. and 8×100 mm for anal., with flow rates of 8 and 2 ml/mim, respectively; UV detection at 226 and 278 nm), then MS, NMR(600 MHz,1 H) and CD. Solid-phase assays were run, as described in 2.4.
On the technique in general: Loss of bound radioactivity is the signal in a displacement assay; it reports binding, not function.
`CC(C)[C@@H]1NC(=O)[C@H](Cc2c[nH]c3ccccc23)NC(=O)[C@H](Cc2ccc(O)cc2)NC(=O)[C@@H]2CCCN2C(=O)[C@H]2CCCN2C(=O)[C@H](Cc2ccc(O)cc2)NC(=O)[C@H](Cc2c[nH]c3ccccc23)NC(=O)[C@H](CCCCN)NC(=O)[C@H](CCCCN)NC(=O)[C@H](CCCNC(=N)N)NC1=O` [Example 9] (cyclo(YWVRKKWY[dP]P)): the IC50 amounted to 0.5 mM.

Staying with this assay, now noted: competition with 125I-PDGF-BB, 3 h at room temperature, immobilized purified PDGFR-β; read-out: Assay I50.
Turning to `CC[C@H](C)[C@@H]1NC(=O)[C@H](CCC(=O)O)NC(=O)[C@@H]2CCCN2C(=O)[C@H]2CCCN2C(=O)[C@H]([C@@H](C)CC)NC(=O)[C@@H]2CCCN2C(=O)[C@H](CCCCN)NC(=O)[C@H](CCCCN)NC(=O)[C@H](CCCNC(=N)N)NC(=O)[C@H](C(C)C)NC1=O` [Example 1] (cyclo(PEIVRKKPI[dP])), the IC50 is 2.2 mM. `CC[C@H](C)[C@@H]1NC(=O)[C@H](Cc2ccc(O)cc2)NC(=O)[C@H](CCCCN)NC(=O)[C@H](CCCCN)NC(=O)[C@H](CCCNC(=N)N)NC(=O)[C@H](C(C)C)NC(=O)[C@H](Cc2ccc(O)cc2)NC(=O)[C@H](CCC(=O)O)NC(=O)[C@@H]2CCCN2C(=O)[C@H]2CCCN2C1=O` [Example 2] (cyclo(PEYVRKKYI[dP])): the IC50 worked out at 2 mM. Still for that read-out and setting: the same measure for `CC[C@H](C)[C@@H]1NC(=O)[C@H](Cc2c[nH]c3ccccc23)NC(=O)[C@H](CCCCN)NC(=O)[C@H](CCCCN)NC(=O)[C@H](CCCNC(=N)N)NC(=O)[C@H](C(C)C)NC(=O)[C@H](Cc2c[nH]c3ccccc23)NC(=O)[C@H](CCC(=O)O)NC(=O)[C@@H]2CCCN2C(=O)[C@H]2CCCN2C1=O` [Example 3] (cyclo(PEWVRKKWI[dP])): 1.5 mM; for `CC[C@H](C)[C@@H]1NC(=O)[C@H](Cc2ccc(O)cc2)NC(=O)[C@@H]2CCCN2C(=O)[C@H]2CCCN2C(=O)[C@H](Cc2ccc(O)cc2)NC(=O)[C@@H]2CCCN2C(=O)[C@H](CCCCN)NC(=O)[C@H](CCCCN)NC(=O)[C@H](CCCNC(=N)N)NC(=O)[C@H](C(C)C)NC1=O` [Example 7] (cyclo(PYIVRKKPY[dP])): 1.5 mM; for `CC(C)[C@@H]1NC(=O)[C@H](Cc2ccc(O)cc2)NC(=O)[C@H](Cc2ccc(O)cc2)NC(=O)[C@@H]2CCCN2C(=O)[C@H]2CCCN2C(=O)[C@H](Cc2ccc(O)cc2)NC(=O)[C@H](Cc2ccc(O)cc2)NC(=O)[C@H](CCCCN)NC(=O)[C@H](CCCCN)NC(=O)[C@H](CCCNC(=N)N)NC1=O` [Example 8] (cyclo(PYYVRKKYY[dP])): 0.8 mM.

`CC(C)[C@@H]1NC(=O)[C@H](C)NC(=O)[C@H](Cc2ccc(O)cc2)NC(=O)[C@@H]2CCCN2C(=O)[C@H]2CCCN2C(=O)[C@H](Cc2ccc(O)cc2)NC(=O)[C@H](C)NC(=O)[C@H](CCCCN)NC(=O)[C@H](CCCCN)NC(=O)[C@H](CCCNC(=N)N)NC1=O` [Example 10] (cyclo(PYAVRKKAY[dP])): the IC50 worked out at 2 mM. Still for that read-out and setting: under `CC(C)[C@@H]1NC(=O)[C@H](CO)NC(=O)[C@H](Cc2ccc(O)cc2)NC(=O)[C@@H]2CCCN2C(=O)[C@H]2CCCN2C(=O)[C@H](Cc2ccc(O)cc2)NC(=O)[C@H](CO)NC(=O)[C@H](CCCCN)NC(=O)[C@H](CCCCN)NC(=O)[C@H](CCCNC(=N)N)NC1=O` [Example 11] (cyclo(PYSVRKKSY[dP])) stands 2 mM; under `CC(C)[C@@H]1NC(=O)[C@H](CCCCN)NC(=O)[C@H](Cc2ccc(O)cc2)NC(=O)[C@@H]2CCCN2C(=O)[C@H]2CCCN2C(=O)[C@H](Cc2ccc(O)cc2)NC(=O)[C@H](CCCCN)NC(=O)[C@H](CCCCN)NC(=O)[C@H](CCCCN)NC(=O)[C@H](CCCNC(=N)N)NC1=O` [Example 12] (cyclo(PYKVRKKKY[dP])), 1.5 mM; under `CC[C@H](C)[C@@H]1NC(=O)[C@H](Cc2c[nH]c3ccccc23)NC(=O)[C@@H]2CCCN2C(=O)[C@H]2CCCN2C(=O)[C@H](Cc2c[nH]c3ccccc23)NC(=O)[C@@H]2CCCN2C(=O)[C@H](CCCCN)NC(=O)[C@H](CCCCN)NC(=O)[C@H](CCCNC(=N)N)NC(=O)[C@H](C(C)C)NC1=O` [Example 13] (cyclo(PWIVRKKPW[dP])), 0.26 mM. Still for that read-out and setting: under `CC(C)[C@@H]1NC(=O)[C@H](Cc2ccc(O)cc2)NC(=O)[C@H](Cc2c[nH]c3ccccc23)NC(=O)[C@@H]2CCCN2C(=O)[C@H]2CCCN2C(=O)[C@H](Cc2c[nH]c3ccccc23)NC(=O)[C@H](Cc2ccc(O)cc2)NC(=O)[C@H](CCCCN)NC(=O)[C@H](CCCCN)NC(=O)[C@H](CCCNC(=N)N)NC1=O` [Example 14] (cyclo(PWYVRKKYW[dP])) stands 0.17 mM; under `CC(C)[C@@H]1NC(=O)[C@H](C)NC(=O)[C@H](Cc2c[nH]c3ccccc23)NC(=O)[C@@H]2CCCN2C(=O)[C@H]2CCCN2C(=O)[C@H](Cc2c[nH]c3ccccc23)NC(=O)[C@H](C)NC(=O)[C@H](CCCCN)NC(=O)[C@H](CCCCN)NC(=O)[C@H](CCCNC(=N)N)NC1=O` [Example 16] (cyclo(PWAVRKKAW[dP])), 0.8 mM.

Regarding `CC(C)[C@@H]1NC(=O)[C@H](CO)NC(=O)[C@H](Cc2c[nH]c3ccccc23)NC(=O)[C@@H]2CCCN2C(=O)[C@H]2CCCN2C(=O)[C@H](Cc2c[nH]c3ccccc23)NC(=O)[C@H](CO)NC(=O)[C@H](CCCCN)NC(=O)[C@H](CCCCN)NC(=O)[C@H](CCCNC(=N)N)NC1=O` [Example 17] (cyclo(PWSVRKKSW[dP])), the IC50 turned out to be 0.8 mM. On the same count and under the same terms, under `CC(C)[C@@H]1NC(=O)[C@H](CCCCN)NC(=O)[C@H](Cc2c[nH]c3ccccc23)NC(=O)[C@@H]2CCCN2C(=O)[C@H]2CCCN2C(=O)[C@H](Cc2c[nH]c3ccccc23)NC(=O)[C@H](CCCCN)NC(=O)[C@H](CCCCN)NC(=O)[C@H](CCCCN)NC(=O)[C@H](CCCNC(=N)N)NC1=O` [Example 18] (cyclo(PWKVRKKKW[dP])) stands 0.5 mM; under `CC(C)[C@@H]1NC(=O)[C@H](Cc2ccc(O)cc2)NC(=O)[C@H](C)NC(=O)[C@@H]2CCCN2C(=O)[C@H]2CCCN2C(=O)[C@H](C)NC(=O)[C@H](Cc2ccc(O)cc2)NC(=O)[C@H](CCCCN)NC(=O)[C@H](CCCCN)NC(=O)[C@H](CCCNC(=N)N)NC1=O` [Example 20] (cyclo(PAYVRKKYA[dP])), 2 mM.

On to `CC(C)[C@@H]1NC(=O)[C@H](Cc2c[nH]c3ccccc23)NC(=O)[C@H](C)NC(=O)[C@@H]2CCCN2C(=O)[C@H]2CCCN2C(=O)[C@H](C)NC(=O)[C@H](Cc2c[nH]c3ccccc23)NC(=O)[C@H](CCCCN)NC(=O)[C@H](CCCCN)NC(=O)[C@H](CCCNC(=N)N)NC1=O` [Example 21] (cyclo(PAWVRKKWA[dP])), for which the IC50 is 2 mM.

A further assay concerns the target T1, platelet-derived growth factor β-receptor (PDGFR-β).
T1 chain: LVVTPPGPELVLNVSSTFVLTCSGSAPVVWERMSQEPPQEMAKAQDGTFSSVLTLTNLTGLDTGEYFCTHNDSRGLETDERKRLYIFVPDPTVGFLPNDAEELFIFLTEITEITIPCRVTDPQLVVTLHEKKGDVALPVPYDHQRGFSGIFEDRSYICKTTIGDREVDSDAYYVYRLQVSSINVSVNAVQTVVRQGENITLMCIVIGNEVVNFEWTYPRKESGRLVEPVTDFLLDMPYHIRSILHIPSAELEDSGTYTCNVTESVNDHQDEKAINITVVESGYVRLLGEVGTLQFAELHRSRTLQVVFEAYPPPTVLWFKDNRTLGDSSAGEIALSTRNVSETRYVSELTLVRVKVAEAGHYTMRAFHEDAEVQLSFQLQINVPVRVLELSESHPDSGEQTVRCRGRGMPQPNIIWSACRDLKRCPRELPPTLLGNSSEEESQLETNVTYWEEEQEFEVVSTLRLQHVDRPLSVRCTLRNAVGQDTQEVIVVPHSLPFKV
The experiment in a line: solid-phase competition, displacement of 125I-PDGF-BB from plate-immobilised PDGFR-β.
Conditions: not given
For B1, the IC50 was 800 µM.
